Measured values as given in patent publication US11524956B2, “Alkyne substituted quinazoline compound and methods of use” (Newgen Therapeutics, Inc., priority 2011, dated 2022).
Entries after “also recorded” stand apart in the source; their conditions may differ.

Tests used:
ErbB2 kinase protein = ErbB2 kinase protein (Homo sapiens (Human), UniProt P04626); assay: Kinase assay for ErbB2; format: biochemical; settings: read-out: Kinase inhibition IC50 (nM) ErbB2
Experimental: The assay is performed similarly to the kinase assay for […] as described above, except ErbB2 kinase protein is used instead of EGFR kinase protein.

EGFR kinase = EGFR kinase (Homo sapiens (Human), UniProt P00533); assay: Kinase assay for EGFR (TR-FRET, LanthaScreen); format: biochemical; settings: read-out: Kinase inhibition IC50 (nM) EGFR
Experimental: The extent to which the compounds of the present invention modulate EGFR kinase activity can be determined using time-resolved Fret (TR-FRET) assay (LanthaScreen® kinase activity assay, from InVitrogen). The assay employs EGFR kinase (PV3872, Invitrogen), Tb-Py20 antibody (PV3552, InVitrogen) and fluorescein-poly GT (PV3610, InVitrogen).
The assay is performed in a Black 384-well plate (available from Corning). EGFR kinase (is diluted in TR-FRET Dilution Buffer (PV3189, InVitrogen) at concentration of 0.4 ug/ml as stock solution, and then 2-fold serial diluted. Addition of 1 mM ATP initiated the reaction, and the reaction is incubated for […] at room temperature. 10 μL of the Tb-antibody (from InVitrogen)+EDTA (from InVitrogen) solution prepared was added to each well of the assay plate and mix briefly, and incubated for 30 min. The signal is monitored by using M5 microplate reader (Ex=332 nm, Em=488 nm and 518 nm). Each compound is tested in duplicate wells. EGFR without compound is used as control. Staurosporine (available from Sigma) is used as positive control compound. Inhibition was calculated as percentage of the EGFR activity (without compound).

BT474 cells = assay: Cell proliferation inhibition assay for BT474 (CCK-8); format: cell-based; settings: Homo sapiens, BT-474; 72h
Experimental: Human breast cancer BT474 cells was cultured in low glucose DMEM (Life Technologies 12320-032) containing 10% fetal bovine serum (FBS) at 37° C. in a humidified 10% CO2, 90% air incubator. Cells were harvested using trypsin EDTA, counted using a haemocytometer, and plated 10000 cell/well in a 96-well clear tissue culture plate. The cells were incubated for 24 h at 37° C. to allow adherence. A serials of concentrations of each compound (ranging from 30 um to 0.16 nM, 5-fold dilution) in 96-well plate, and incubated for 72h. Each concentration was tested in triplicate wells. During the cell proliferation assay, BT474 cells were cultured in low-glucose DMEM containing 5% FBS, 50 ug/ml gentamicin, and 0.3% v/v DMSO. The culture medium was removed via aspiration, and the cell viability was detected by using CCK-8 cell proliferation kit. The IC50 value measured for each compound in Examples 1 to 7 is <100 nM.

NCI-N87 xenograft = assay: In vivo efficacy in NCI-N87 xenograft mouse model; settings: 80 mg/kg p.o. bid
Experimental: NCI-N87 cell line was purchased from ATCC (American Type Culture Collection) and was cultured in RPMI1640+10% FBS+1% P/S antibiotics.
Male Balb/c nude mice, 6-8 week, 18±2 g (supplier: Shanghai SLAC Laboratory Animal Co. Ltd.) were used for the experiment. The purchased mice were adapted to the environment for 7 days before use, and were housed at 22-25° C. with humidity 40-70%, and light cycle with fluorescent light for 12-hour light (8:00-20:00) 12-hour dark. The mice have free access to food and water.
The cancer cells (NCI-N87) were implanted subcutaneous into the nude mice (right flank) with 5.0×10^6 cells in 0.1 ml PBS (50 mice). When the tumor size reaches a volume of 200 (150-200) mm^3, the tumor-bearing nude mice were randomly assigned into groups (10 mice/group), one group was served as vehicle, one group was administrated with Lapatinib ditosylate monohydrate (80 mg/kg, free base of Lapatinib, not salt, p.o. […]). The other two groups were administrated with NT113 (also referred to as KID 113) ((15 and 30 mg/kg, p.o.q.d, respectively). The administration period lasted for 4 weeks.
The mice were monitored twice daily for appearance and behavior, and for signs of morbidity and/or mortality. The tumor volume was measured twice a week, and the body weight was measured immediately before measuring the tumor volume throughout the whole study.
At end of the experiment (compound administration for four weeks), all the tumor-bearing mice were sacrificed by cervical dislocation under deep anesthesia. The tumor mass was resected, and weighed.
Tumor sizes were measured twice weekly in two dimensions using a caliper, and the volume was expressed in mm^3 using the formula: V=½×a×b^2 where a and b are the long and short diameters of the tumor, respectively. The tumor mass was weighed at the end of the experiment after harvested.
V=½×a×b^2 (a, h is maximum and minimum diameters respectively).
RTV (Relative Tumor Volume)=Vt/Vo • Vo is the tumor volume when the test article is initial administrated • Vt is the tumor volume of every measurement day after test article administration
T/C (%)=TRTV/CRTV×100% • TRTV: RTV of test article-treatment group; CRTV: RTV of control group Inhibition rate (%)=(average tumor volume of control group average cancer volume of test article treatment group)/average tumor volume of control group×100%
The tumor-bearing mice were treated for 4 weeks with different doses of KU (15 mg/kg, 30 mg/kg, […]), qd) and Lapatinib KUA-1, 80 mg/kg, p.o., bid, 7 days/week. At the day-7 after treatment, the RTV TIC KU113 (15 mg/kg, 30 mg/kg) groups were <30%, and the tumor growth inhibition was >70%. but the RTV TIC was 31% and tumor growth inhibition rat was 69% in the lapatinib group. The same result was observed as well when it comes to the tumor weight. On day 28 after treatment, all the tumor-bearing mice were sacrificed, and all the tumor masses were harvested to weigh.

Rat brain concentration = format: in vivo, Sprague Dawley rats; settings: predetermined time points
Experimental: Brain concentration: Three rats are for brain collection (2h) only. Three rats are for brain collection (4 h) only. The rest 3 rats are for plasma (9 time points) and brain collection (24h).
Brain Collection and Tissue Processing: Post blood collection, the brain was first perfused intracardially with ˜150 mL of ice-cold, 0.1 M Phosphate Buffered Saline (PBS) at pH7.4. Then, the dura was removed before weighing the brain. The brain was then dissected into smaller pieces, rinsed twice with ˜10 mL PBS, and then flash frozen on dry ice, and stored at −80° C. before analysis.
Before tissue processing, rat brains were thawed. For the preparation of analytical standards, purchased frozen rat brains (from Pelfreez) were similarly thawed, dissected, rinsed with PBS, and 100 μL of Compound A stock solution (at 500 ng/mL and 1, 2 5, 10, and 50 μg/mL in acetonitrile) was spiked directly into the tissue. Both Compound A dosed and spiked brains then underwent the same processing procedures described below.
Briefly, 2 mL of water was added to each brain before homogenization. Homogenize the brain in 2 to 3 sessions, each approximately 15 sec. The mechanical probe of the homogenizer was cleansed in water, 70% ethanol, and ethyl acetate after each sample. The resulting brain homogenates were then extracted with ethyl acetate three times (14 mL total), and centrifuged to separate the aqueous and organic phases after each extraction. Per brain, pooled organic phase were evaporated under a stream of nitrogen at 40° C. and the residues were reconstituted with 4 mL of mobile phase B. Compound A spiked brain samples in the 4 mL solutions had final concentrations of 12.5, 25, 50, 125, 250, 1250 ng/mL. The reconstituted samples were incubated for ˜15 minutes at 60° C. and, vortexed for 10 minutes to fully dissolve the analytes. The samples were centrifuged, and then further diluted with Mobile phase B (shown below) before LC/MS/MS analysis. Dilute 20 μL of reconstituted samples with 1.5 mL mobile phase B. Transfer and inject supernatant to […] system for analysis.

[1] = Rat pharmacokinetics studies (plasma); format: in vivo, Sprague Dawley rats; settings: rat
Experimental: Sample preparation: The test article each was dissolved in 10% DMSO and 90% of (40% HP-β-CD in deionized water) to yield concentration at 2 mg/mL for intravenous and oral administration.
Method development and plasma samples analysis were performed by Analytical Sciences Division of the Testing Facility by means of LC-MS/MS. The analytical results were confirmed using quality control samples for intra-assay variation (within day variation). The accuracy of >66% of the quality control samples was between 80-120% of the known value(s).
Each group consisted of 3 male Sprague Dawley rats (7-8 week old, 200-300 g body weight). The test articles were administered by a single bolus intravenous injection via the lateral tail vein or via oral gavage.
Blood samples (approximately 300 μl) were collected via retro-orbital puncture after anaesthesia using mixed gas (CO2:O2=7:3) into tubes containing EDTA-K3 anticoagulant at appropriate time points. 10 time points (Groups 1-2): Pre-dose and post-dose at 5 min, 15 min, 30 min, 1 h, 2 h, 4 h, 6 h, 8 h and 24 h.
Analysis: The PK blood samples were centrifuged at approximately 8000 rpm for (3 minutes at 2-8° C. and the resulting plasma were separated and stored frozen at approximately −80° C. (following separation, the plasma may be initially placed on ice prior to being stored in the −80° C. freezer). All the plasma samples were labeled with detailed information such as study number, animal number, matrix, time points of collection and date of collection.
Standard set of parameters including Area Under the Curve (AUC(0-t) and AUC(0-∞)), elimination half-live (T1/2), maximum plasma concentration (Cmax), time to reach maximum plasma concentration (Tmax), clearance (CL), and volume of distribution (Vz) will be calculated using noncompartmental analysis modules in FDA certified pharmacokinetic program WinNonlin Professional v5.2 (Pharsight, USA) by the Study Director. Furthermore, the Bioavailability will be estimated using the following formula:
• AUC(0-t) Area under the curve from the time of dosing to the last measurable concentration • AUC(0-∞) Area under the curve from the time of dosing extrapolated to infinity, based on the last observed concentration • CL Total body clearance, CL=Dose/AUC • Cmax Maximum observed concentration, occurring at Tmax • F Bioavailability • MRT(0-∞) Mean residence time from the time of dosing to infinity • Tmax Time of maximum observed concentration • T1/2 Terminal half-life=In(2)/λz • Vz Volume of distribution based on the terminal phase

ErbB2 kinase protein, sequence (P04626 23-1255): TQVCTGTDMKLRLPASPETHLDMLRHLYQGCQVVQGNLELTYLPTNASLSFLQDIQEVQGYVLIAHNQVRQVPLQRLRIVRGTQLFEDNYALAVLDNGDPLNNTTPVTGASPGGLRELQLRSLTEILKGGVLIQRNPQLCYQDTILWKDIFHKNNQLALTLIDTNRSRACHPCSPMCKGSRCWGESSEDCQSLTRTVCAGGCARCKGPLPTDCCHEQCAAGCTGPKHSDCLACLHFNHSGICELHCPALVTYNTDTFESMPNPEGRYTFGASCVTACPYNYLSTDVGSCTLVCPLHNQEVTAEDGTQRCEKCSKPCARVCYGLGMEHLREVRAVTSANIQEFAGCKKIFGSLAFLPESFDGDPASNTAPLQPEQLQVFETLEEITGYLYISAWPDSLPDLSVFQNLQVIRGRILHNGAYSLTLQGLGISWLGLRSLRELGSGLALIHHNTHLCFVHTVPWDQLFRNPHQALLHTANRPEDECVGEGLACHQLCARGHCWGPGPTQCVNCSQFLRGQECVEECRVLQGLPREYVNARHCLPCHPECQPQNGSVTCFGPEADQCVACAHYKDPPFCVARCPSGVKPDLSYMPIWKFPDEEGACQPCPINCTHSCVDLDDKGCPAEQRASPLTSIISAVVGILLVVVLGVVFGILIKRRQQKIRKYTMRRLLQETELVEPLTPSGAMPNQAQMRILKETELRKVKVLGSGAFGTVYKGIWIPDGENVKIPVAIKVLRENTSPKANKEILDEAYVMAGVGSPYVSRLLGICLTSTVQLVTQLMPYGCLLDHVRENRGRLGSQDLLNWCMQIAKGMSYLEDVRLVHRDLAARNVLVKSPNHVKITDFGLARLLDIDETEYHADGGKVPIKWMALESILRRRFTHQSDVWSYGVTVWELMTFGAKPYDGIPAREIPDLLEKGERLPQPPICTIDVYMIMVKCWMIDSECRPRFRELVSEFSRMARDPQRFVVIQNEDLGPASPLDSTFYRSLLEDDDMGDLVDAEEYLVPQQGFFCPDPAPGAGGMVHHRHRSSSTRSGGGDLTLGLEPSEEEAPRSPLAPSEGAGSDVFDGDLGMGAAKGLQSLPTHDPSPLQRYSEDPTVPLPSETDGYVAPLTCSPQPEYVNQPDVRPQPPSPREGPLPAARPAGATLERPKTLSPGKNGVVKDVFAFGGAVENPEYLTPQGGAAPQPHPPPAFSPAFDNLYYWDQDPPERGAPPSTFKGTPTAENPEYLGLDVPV
EGFR kinase, sequence (P00533 668-1210): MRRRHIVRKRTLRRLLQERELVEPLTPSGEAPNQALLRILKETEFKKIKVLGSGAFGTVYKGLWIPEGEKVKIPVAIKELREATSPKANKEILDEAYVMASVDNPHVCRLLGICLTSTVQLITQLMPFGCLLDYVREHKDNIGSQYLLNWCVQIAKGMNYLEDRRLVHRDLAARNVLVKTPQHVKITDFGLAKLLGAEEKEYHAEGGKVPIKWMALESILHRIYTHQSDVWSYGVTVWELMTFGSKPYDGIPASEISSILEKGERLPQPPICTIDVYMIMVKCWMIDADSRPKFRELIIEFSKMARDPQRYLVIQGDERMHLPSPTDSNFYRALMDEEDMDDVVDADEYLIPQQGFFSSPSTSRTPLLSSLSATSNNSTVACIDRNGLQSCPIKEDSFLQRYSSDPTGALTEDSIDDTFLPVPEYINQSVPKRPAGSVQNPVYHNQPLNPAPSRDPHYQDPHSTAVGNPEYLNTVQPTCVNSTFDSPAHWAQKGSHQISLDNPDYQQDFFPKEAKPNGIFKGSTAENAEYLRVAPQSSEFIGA

Structure (SMILES)	IC50 (ErbB2 kinase protein) [nM]	IC50 (EGFR kinase) [nM]	IC50 (BT474 cells) [nM]	also measured
CN(C)C/C=C/C(=O)Nc1cc2c(Nc3ccc(F)c(Cl)c3)ncnc2cc1C#CC1CCOC1 (stereo not shown) [Example 1, (E)-N-(4-(3-chloro-4-fluorophenylamino)-7-(2-(tetrahydrofuran-3-yl)ethynyl)quinazolin-6-yl)-4-(dimethylamino)but-2-enamide]	< 100	< 100	< 100	
CN(C)C/C=C/C(=O)Nc1cc2c(Nc3ccc(F)c(Cl)c3)ncnc2cc1C#C[C@@H]1CCCO1 [Example 2, (E)-N-(4-(3-chloro-4-fluorophenylamino)-7-(2-((S)-tetrahydrofuran-2-yl)ethynyl)quinazolin-6-yl)-4-(dimethylamino)but-2-enamide]	< 100	< 100	< 100	
CN(C)C/C=C/C(=O)Nc1cc2c(Nc3ccc(F)c(Cl)c3)ncnc2cc1C#C[C@H]1CCCO1 [Example 3, (E)-N-(4-(3-chloro-4-fluorophenylamino)-7-(2-((R)-tetrahydrofuran-2-yl)ethynyl)quinazolin-6-yl)-4-(dimethylamino)but-2-enamide]	< 100	< 100	< 100	
CN(C)C/C=C/C(=O)Nc1cc2c(Nc3ccc(F)c(Cl)c3)ncnc2cc1C#CC12COCC1C2 (stereo not shown) [Example 5, (E)-N-(4-(3-chloro-4-fluorophenylamino)-7-(2-(3-oxa-bicyclo[3.1.0]hexan-1-yl)ethynyl)quinazolin-6-yl)-4-(dimethylamino)but-2-enamide]	< 100	< 100	< 100	
CN(C)C/C=C/C(=O)Nc1cc2c(Nc3ccc(F)c(Cl)c3)ncnc2cc1C#C[C@]12COC[C@H]1C2 [Example 6, (E)-N-(4-(3-chloro-4-fluorophenylamino)-7-(2-((1R,5S)-3-oxa-bicyclo[3.1.0]hexan-1-yl)ethynyl)quinazolin-6-yl)-4-(dimethylamino)but-2-enamide]	< 100	< 100	< 100	
CN(C)C/C=C/C(=O)Nc1cc2c(Nc3ccc(F)c(Cl)c3)ncnc2cc1C#C[C@@]12COC[C@@H]1C2 [Example 7, (E)-N-(4-(3-chloro-4-fluorophenylamino)-7-(2-((1S,5R)-3-oxa-bicyclo[3.1.0]hexan-1-yl)ethynyl)quinazolin-6-yl)-4-(dimethylamino)but-2-enamide]	< 100	< 100	< 100	
CS(=O)(=O)CCNCc1ccc(-c2ccc3ncnc(Nc4ccc(OCc5cccc(F)c5)c(Cl)c4)c3c2)o1 [Lapatinib, reference compound]				tumor inhibition rate (NCI-N87 xenograft; day 28 (last day of the study)): 92.9%; RTV T/C (NCI-N87 xenograft; day-7 after treatment): 31%; tumor growth inhibition rate (NCI-N87 xenograft; day-7 after treatment): 69%
CN(C)C/C=C/C(=O)Nc1cc2c(Nc3ccc(F)c(Cl)c3)ncnc2cc1O[C@H]1CCOC1 [afatinib, reference compound]				Kp (Rat brain concentration; Sprague Dawley, brain/plasma, read-out: Brain/plasma concentration ratio): < 0.05; brain concentration (Rat brain concentration): < 1 ng/g; brain concentration (detectability) (Rat brain concentration): no detectable brain concentration; also recorded: below detection limit; rat PK (qualitative) [1]: poor PK
